Measurements from patent US20260234180A1, “AMINO ACID DERIVATIVE, PREPARATION METHOD THEREFOR, AND PHARMACEUTICAL COMPOSITION FOR TREATING HEPATITIS, COMPRISING SAME” (priority 2021, published 2026).

What was measured:
HBV virus = experiment: HBV infection of HepG2-NTCP cells, HBeAg ELISA analysis; type: cell-based, hepatitis B virus (HBV); details: 20 μM, O.D. 450 nm
Method: Specifically, the HepG2-NTCP cell line was cultured on a 6-well plate, incubation was performed overnight, HBV inhibitors were treated at a concentration of 20 μM, and the positive control Myrcludex-B (MyrB) was treated at a concentration of 200 nM, followed by culture for 24 hours. After HBV infection into the cells to make HBV 3000 genome equivalent per ml/cell (Geq/cell), the cell culture medium was replaced (medium changing, MC) a day after the viral infection to remove the virus unattached to cell membranes. In order to measure an amount of virus that entered the cell, medium changing (MC) was performed once more 4 days after viral infection. 2 days after replacement, HBeAg ELISA analysis was performed using a supernatant, and Southern blot analysis was performed with cell pellets.
HBeAg ELISA analysis was performed using an HBeAg ELISA kit (sanbio, Wantai HBeAg ELISA, cat #WB-2496) for the supernatant obtained by the method in Experimental Example 4-1.
First, a negative control group (Mock), positive control group (MyrB), and samples according to the present disclosure were loaded, by 50 μl each to be triplicate, onto a 96-well plate coated with capture Ab. In this case, Example 1 (LCA-ILE), Example 44 (LCA-Val), Example 52 (LCA-Tyr), Example 51 (LCA-Ser), Example 55 (LCA-Glu), Example 2 (UDCA-Ile), Example 3 (UDCA-Val), Example 25 (LCA-Val-Trp), Example 10 (DCA-Ile), Comparative Example 1 (LCA), and Comparative Example 2 (UDCA) were used as the sample.
The HRP-conjugated detection antibody was loaded into each well by 50 μl, followed by a reaction at 37° C. for 30 minutes. Washing buffer (1×PBS, 0.5% Tween20) was added by 200 μl, and washing was performed 5 times. 50 μl of chromogen solution A and 50 μl of chromogen solution B were added to each well, and a reaction was carried out in the darkness at 37° C. for 15 minutes. The stop solution was added to each well by 50 μl each to stop the reaction, and the amount of HBeAg was measured by measuring the absorbance (optical density, O.D.) level in the 450 nm wavelength band.

[1] = target: T1, NTCP (Na+ taurocholate cotransporting peptide), HepG2-hNTCP-C4 cell line (Homo sapiens, UniProt Q14973); experiment: Inhibition of binding between FITC-labelled PreS1 and NTCP expressing cell line, flow cytometry; details: for relative fluorescence intensity compared to Comparative Example 1 (LCA): 20 nM PreS1, 4° C., 2 hours, lower = more inhibited binding; for difference in degree of competitive inhibition versus the parent bile acid Comparative Example: vs Comparative Example 5 or 6; for relative fluorescence intensity in comparison with the parent bile acid Comparative Example: vs Comparative Example 2 (UDCA), 5 (DCA) or 6 (CDCA), method as Experimental Example 1-1
T1 construct: expressed in transfected cells; host or cells: HepG2-hNTCP-C4 (HepG2 cells expressing human NTCP)
T1 sequence (Q14973 1-349): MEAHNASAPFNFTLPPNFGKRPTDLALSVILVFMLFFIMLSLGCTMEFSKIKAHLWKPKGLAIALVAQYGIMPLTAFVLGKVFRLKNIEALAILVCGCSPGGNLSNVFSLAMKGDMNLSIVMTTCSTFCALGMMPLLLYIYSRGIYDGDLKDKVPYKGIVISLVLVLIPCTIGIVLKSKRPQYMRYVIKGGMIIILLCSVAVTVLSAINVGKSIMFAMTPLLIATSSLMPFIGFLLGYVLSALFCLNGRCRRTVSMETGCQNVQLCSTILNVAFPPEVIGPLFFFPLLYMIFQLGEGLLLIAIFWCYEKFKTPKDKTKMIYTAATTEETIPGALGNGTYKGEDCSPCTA
Method: HepG2-hNTCP-C4 cell line, a cell line expressing NTCP, was seeded in a 6 well plate at a density of 2×10^5/well and incubated at 4° C. for 30 minutes when the confluency reached 80% after overnight incubation for 2 days. Thereafter, 20 nM PreS1 (Myr-GTNL […]-Lys(FITC) (SEQ ID NO: 1)) and the compounds in Example 1, Examples 38 to 56 or the compound in Comparative Example 1 were treated by diluting in culture media at 4° C. at a concentration of 50 µM respectively, and the media was suctioned after 2 hours, followed by washing 3 times with 4° C. PBS. In order to take the cells off from the plate, 500 μl of 0.5 mM EDTA PBS solution was treated, and then incubation was performed at 37° C. for 15 minutes to check whether the cells fell off through an optical microscope. After taking off the cells by pipetting, the cells were collected in a 1.5 ml tube and centrifuged (4000 rpm, 4° C., 3 min). After suctioning the supernatant, the pellet was washed 3 times with 4° C. PBS, and then green fluorescence was measured via flow cytometry. In this case, taurocholic acid (TCA), a compound known as a substrate of NTCP to reduce the entry of HBV or HDV, was used as a positive control group.
In the graph at the top of FIG. 1, black (1) and red (2) indicate a negative control group with no treatment and an HBV-induced group (HBV preS1) solely treated with PreS1, respectively. Blue (HBV preS1+HBV entry inhibitor) (3) is the fluorescence value for each of Examples or Comparative Examples, evaluated that the closer to the negative control group, the more inhibited the binding between PreS1 and the NTCP cell line.
The experimental method was the same as in the Experimental Example 1-1, and 20 nM PreS1 and each compound were treated at 4 concentrations (0.2 μM, 2 μM, 10 μM, 50 μM).
With an expectation that there is a structure-activity relationship among compounds composed of bile acid and amino acids, for each of bile acids in Comparative Example 1 (lithocholic acid, LCA), Comparative Example 2 (ursodeoxycholic acid, UDCA), Comparative Example 3 (cholic acid, CA), Comparative Example 4 (hyodeoxycholic acid, HDCA), Comparative Example 5 (deoxycholic acid, DCA), and Comparative Example 6 (chenodeoxycholic acid, CDCA), an evaluation experiment was conducted on an ability to inhibit the binding between PreS1 and NTCP expressing cell lines, and also for Examples 1 (LCA-Ile) and Example 44 (LCA-Val) as well as the compounds in Example 2 (UDCA-Ile), Example 3 (UDCA-Val), Example 6 (CA-Ile), Example 7 (CA-Val), Example 8 (HDCA-Ile), Example 9 (HDCA-Val), Example 10 (DCA-Ile), Example 11 (DCA-Val), Example 14 (CDCA-Ile), and Example 15 (CDCA-Val) in which bile acid parts (lithocholic acid) of Example 1 (LCA-Ile) and Example 44 (LCA-Val) were substituted with other types of bile acids in Comparative Examples 2 to 6, an evaluation experiment was conducted on an ability to inhibit the binding between PreS1 and NTCP expressing cell lines. The experimental method was the same as in the Experimental Example 1-1, and 18 compounds in the Comparative Examples 1 to 6, Examples 1 to 3, Examples 6 to 11, Examples 14 to 15, and Example 44 were treated at a concentration of 50 µM along with 20 nM PreS1.
In FIG. 9, an evaluation experiment was conducted to check a degree of inhibiting the binding between PreS1 and NTCP expressing cell lines for compounds in Examples 4 to 5, Examples 12 to 13, Examples 16 to 17, and Comparative Examples 2 (ursodeoxycholic acid, UDCA), Comparative Examples 5 (deoxycholic acid, DCA), and Comparative Examples 6 (chenodeoxycholic acid, CDCA) according to the present disclosure. The experimental method was the same as the Experimental Example 1-1.
In the Experimental Examples 1-4, it was determined whether there is additionally concentration dependence for Example 4 (UDCA-Trp), a compound with good inhibitory ability. […]

[2] = compared to the HBV-induced group (PreS1-FITC) solely treated with PreS1

## C[C@H](CCC(=O)N[C@@H](CO)C(=O)O)[C@H]1CC[C@H]2[C@@H]3CC[C@@H]4C[C@H](O)CC[C@]4(C)[C@H]3CC[C@]12C [Example 51, (S)-3-hydroxy-2-((R)-4-((3R,5R,8R,9S,10S,13R,14S,17R)-3-hydroxy-10,13-dimethyl-hexadecahydro-1H-cyclopenta[a]phenanthren-17-yl)pentanamido)propanoic acid]
HBV virus
  HBeAg absorbance level relative to the negative control group (Mock): relatively lower
[1]; compound 50 µM
  relative fluorescence intensity compared to Comparative Example 1 (LCA): low

## C[C@H](CCC(=O)N1CCCC1C(=O)O)[C@H]1CC[C@H]2[C@@H]3CC[C@@H]4C[C@H](O)CC[C@]4(C)[C@H]3CC[C@]12C (stereo partly drawn) [Example 38, 1-((R)-4-((3R,5R,8R,9S,10S,13R,14S,17R)-3-hydroxy-10,13-dimethyl-hexadecahydro-1H-cyclopenta[a]phenanthren-17-yl)pentanoyl)pyrrolidine-2-carboxylic acid]
[1]; compound 50 µM
  relative fluorescence intensity compared to Comparative Example 1 (LCA): low and lower

## C[C@H](CCC(=O)N[C@@H](Cc1c[nH]c2ccccc12)C(=O)O)[C@H]1CC[C@H]2[C@@H]3CC[C@@H]4C[C@H](O)CC[C@]4(C)[C@H]3C[C@H](O)[C@]12C [Example 12, (S)-2-((R)-4-((3R,5R,8R,9S,10S,12S,13R,14S,17R)-3,12-dihydroxy-10,13-dimethyl-hexadecahydro-1H-cyclopenta[a]phenanthren-17-yl)pentanamido)-3-(1H-indol-3-yl)propanoic acid]
[1]; [2]
  difference in degree of competitive inhibition versus the parent bile acid Comparative Example: 11.6%
[1]
  relative fluorescence intensity in comparison with the parent bile acid Comparative Example: the same or lower

## C[C@H](CCC(=O)N[C@@H](Cc1c[nH]c2ccccc12)C(=O)O)[C@H]1CC[C@H]2[C@@H]3[C@@H](O)C[C@@H]4C[C@H](O)CC[C@]4(C)[C@H]3CC[C@]12C [Example 4, (S)-2-((R)-4-((3R,5S,7S,8R,9S,10S,13R,14S,17R)-3,7-dihydroxy-10,13-dimethyl-hexadecahydro-1H-cyclopenta[a]phenanthren-17-yl)pentanamido)-3-(1H-indol-3-yl)propanoic acid]
[1]; 2 μM, 10 μM, 20 μM, 50 μM, 20 nM PreS1
  effect of inhibiting the binding between PreS1 and NTCP expressing cell lines by treatment concentration: concentration dependent
[1]; [2]
  difference in degree of competitive inhibition versus Comparative Example 2 (UDCA): about 2 times
[1]
  relative fluorescence intensity in comparison with the parent bile acid Comparative Example: low

## CC(C)[C@H](NC(=O)CC[C@@H](C)[C@H]1CC[C@H]2[C@@H]3C[C@H](O)[C@@H]4C[C@H](O)CC[C@]4(C)[C@H]3CC[C@]12C)C(=O)O [Example 9, (S)-2-((R)-4-((3R,5R,6S,8S,9S,10R,13R,14S,17R)-3,6-dihydroxy-10,13-dimethyl-hexadecahydro-1H-cyclopenta[a]phenanthren-17-yl)pentanamido)-3-methylbutanoic acid]
[1]; compound 50 µM, 20 nM PreS1
  ability to inhibit the binding between PreS1 and NTCP expressing cell lines (bile acid series): relatively excellent

## C[C@H](CCC(=O)N[C@@H](Cc1ccc(O)cc1)C(=O)O)[C@H]1CC[C@H]2[C@@H]3CC[C@@H]4C[C@H](O)CC[C@]4(C)[C@H]3C[C@H](O)[C@]12C [Example 13, (S)-2-((R)-4-((3R,5R,8R,9S,10S,12S,13R,14S,17R)-3,12-dihydroxy-10,13-dimethyl-hexadecahydro-1H-cyclopenta[a]phenanthren-17-yl)pentanamido)-3-(4-hydroxyphenyl)propanoic acid]
[1]
  relative fluorescence intensity in comparison with the parent bile acid Comparative Example: the same or lower

## C[C@H](CCC(=O)N[C@@H](Cc1c[nH]c2ccccc12)C(=O)O)[C@H]1CC[C@H]2[C@@H]3[C@H](O)C[C@@H]4C[C@H](O)CC[C@]4(C)[C@H]3CC[C@]12C [Example 16, (S)-2-((R)-4-((3R,5S,7R,8R,9S,10S,13R,14S,17R)-3,7-dihydroxy-10,13-dimethyl-hexadecahydro-1H-cyclopenta[a]phenanthren-17-yl)pentanamido)-3-(1H-indol-3-yl)propanoic acid]
[1]; [2]
  difference in degree of competitive inhibition versus the parent bile acid Comparative Example: 17.8%
[1]
  relative fluorescence intensity in comparison with the parent bile acid Comparative Example: low
